The source of these data is ChEMBL document CHEMBL1128078, “Evaluation of substituted benzamides as P2 ligands for symmetry-based inhibitors of HIV protease” (Bioorg Med Chem Lett, 1995).

What is called IC50 is the concentration that gives 50% inhibition. Lower therefore signals greater potency in that assay. Broadly, the EC50 is the concentration needed to bring the measured effect to its halfway point. A high value points to a need for much substance.

In assay [1] the target is Human immunodeficiency virus type 1 protease (Human immunodeficiency virus 1, UniProt Q72874). As to the kind of experiment: Inhibitory activity against purified HIV protease.
The test system of assay [2] is Human immunodeficiency virus 1. As to the kind of experiment: Anti-HIV activity against MT-4 cells using a cytopathicity assay. In kind it is functional, organism-based. The conditions noted are these: Human immunodeficiency virus 1, MT4. For orientation: Cytopathic effects are the visible damage that an infection or toxin causes in cultured cells.
For assay [3], the system named is MT4. The assay can be described thus: Cytotoxicity against MT-4 cells using a cytopathicity assay. In kind it is functional, Homo sapiens.
Assay [4] concerns MT4. The assay can be described thus: Anti-HIV activity was determined against MT-4 cells using a cytopathicity assay; NE means no effect. In kind it is functional, cell-based, Homo sapiens.

Molecules are shown by their SMILES.

Turning to `CC(C)(C)OC(=O)N[C@@H](Cc1ccccc1)C[C@H](O)[C@H](Cc1ccccc1)NC(=O)c1ccc(O)cc1Cl`, the half-maximal inhibitory concentration (IC50) in assay [1] is 0.0014 µM. In assay [2], the midpoint of the response, the EC50, lay at 1.8 µM. In assay [3], the CCIC50 turned out to be 23 µM.

With `Cc1c(O)cccc1C(=O)N[C@@H](Cc1ccccc1)[C@@H](O)C[C@H](Cc1ccccc1)NC(=O)OC(C)(C)C`, in assay [1], the half-inhibitory concentration (IC50) stood at 0.0016 µM. Moreover, the midpoint of the response in assay [2], the EC50, lay at 1.2 µM. For the same compound, the CCIC50 in assay [3] is 47 µM.

On to `O=C(N[C@@H](Cc1ccccc1)C[C@H](O)[C@H](Cc1ccccc1)NC(=O)OCc1ccccc1)OCc1ccccc1`, for which, in assay [1], half-maximal inhibition (IC50) was put at 0.0056 µM. The compound further had a 50% effective concentration (EC50) in assay [2] above 30 µM. In assay [3], this compound returned a CCIC50 above 100 µM.

In assay [1], `CC(C)(C)OC(=O)N[C@@H](Cc1ccccc1)C[C@H](O)[C@H](Cc1ccccc1)NC(=O)c1cc(N)ccc1Cl` showed a half-maximal inhibitory concentration (IC50) of 0.0033 µM. The compound also returned a 50% effective concentration (EC50) in assay [2] of 1.8 µM. Besides, the CCIC50 in assay [3] was above 100 µM.

As to `CC(C)(C)OC(=O)N[C@@H](Cc1ccccc1)C[C@H](O)[C@H](Cc1ccccc1)NC(=O)c1ccc(O)c(N)c1`, in assay [1], the IC50 stood at 0.0076 µM. This compound also yielded a concentration for a half-maximal effect (EC50) in assay [2] of 5 µM. Besides, the CCIC50 in assay [3] was found to be 57 µM.

In assay [1], `CC(C)(C)OC(=O)N[C@@H](Cc1ccccc1)C[C@H](O)[C@H](Cc1ccccc1)NC(=O)OC(C)(C)C` showed a half-inhibitory concentration (IC50) of 0.0053 µM.

On to `COc1cc(C(=O)N[C@@H](Cc2ccccc2)[C@@H](O)C[C@H](Cc2ccccc2)NC(=O)OC(C)(C)C)ccc1O`, for which inhibition in assay [1] was half-maximal at 0.0033 µM (IC50). In addition, the 50% effective concentration (EC50) in assay [2] came out at 2.8 µM. Further, the CCIC50 in assay [3] worked out at 43 µM.

`CC(C)(C)OC(=O)N[C@@H](Cc1ccccc1)C[C@H](O)[C@H](Cc1ccccc1)NC(=O)c1ccc(N)c(O)c1` yielded a half-inhibitory concentration (IC50) in assay [1] of 0.011 µM. The concentration giving a half-maximal response (EC50) entry in assay [4] is given as “Not Active”. For the same compound, in assay [3], the CCIC50 came out at 11 µM.

In the case of `CC(C)(C)OC(=O)N[C@@H](Cc1ccccc1)C[C@H](O)[C@H](Cc1ccccc1)NC(=O)c1cc(N)cc(N)c1`, the IC50 in assay [1] worked out at 0.25 µM. Besides, the concentration for a half-maximal effect (EC50) entry in assay [4] is recorded as “Not Active”. For the same compound, the CCIC50 in assay [3] is 92 µM.

Compound `O=C(N[C@@H](Cc1ccccc1)[C@@H](O)C[C@H](Cc1ccccc1)NC(=O)c1ccccc1)OCc1ccccc1` had an IC50 in assay [1] of 0.031 µM. The same compound displayed an EC50 in assay [2] above 10 µM. The CCIC50 in assay [3] is above 100 µM.

In turn, `CC(C)(C)OC(=O)N[C@@H](Cc1ccccc1)C[C@H](O)[C@H](Cc1ccccc1)NC(=O)c1ccc(N)c(N)c1` had an IC50 in assay [1] of 0.0096 µM. For the same compound, the EC50 in assay [2] came out at 7.6 µM. In assay [3], this compound had a CCIC50 of 81 µM.

As to `CC(C)(C)OC(=O)N[C@@H](Cc1ccccc1)C[C@H](O)[C@H](Cc1ccccc1)NC(=O)c1c(Cl)ccc(N)c1Cl`, the half-inhibitory concentration (IC50) in assay [1] stood at 0.031 µM. In other words, the double-digit nanomolar range.

On to `CC(C)(C)OC(=O)N[C@@H](Cc1ccccc1)C[C@H](O)[C@H](Cc1ccccc1)NC(=O)c1c(Cl)cccc1Cl`, for which the concentration for half-maximal inhibition (IC50) in assay [1] is 0.067 µM. Also, the EC50 in assay [2] was above 10 µM. This compound also came in with a CCIC50 in assay [3] of 19 µM.

Take `O=C(N[C@@H](Cc1ccccc1)[C@@H](O)C[C@H](Cc1ccccc1)NC(=O)c1ccc(O)cc1Cl)OCc1ccccc1`: in assay [1], it took 0.0013 µM to reach half-maximal inhibition (IC50). For the same compound, in assay [2], the half-maximal effective concentration (EC50) amounted to 2.2 µM. In assay [3], this compound yielded a CCIC50 of 18 µM.

Take `CC(C)(C)OC(=O)N[C@@H](Cc1ccccc1)C[C@H](O)[C@H](Cc1ccccc1)NC(=O)c1ccc(N)cc1Cl`: 0.0034 µM corresponded to half-maximal inhibition in assay [1] (IC50). The compound also had a concentration giving a half-maximal response (EC50) in assay [2] of 2.9 µM. The same compound displayed a CCIC50 in assay [3] of 48 µM.

With `COc1cc(C(=O)N[C@@H](Cc2ccccc2)C[C@H](O)[C@H](Cc2ccccc2)NC(=O)OCc2ccccc2)ccc1N`, 0.0105 µM corresponded to half-maximal inhibition in assay [1] (IC50). The compound further registered a 50% effective concentration (EC50) in assay [2] above 8 µM. For the same compound, the CCIC50 in assay [3] turned out to be 18 µM.

In turn, `CC(C)(C)OC(=O)N[C@@H](Cc1ccccc1)C[C@H](O)[C@H](Cc1ccccc1)NC(=O)c1cccc(N)c1Cl` displayed an IC50 in assay [1] of 0.0053 µM. Moreover, the EC50 in assay [2] is 3.1 µM. Besides, in assay [3], the CCIC50 stood at 55 µM.

The compound `CC(C)(C)OC(=O)N[C@@H](Cc1ccccc1)C[C@H](O)[C@H](Cc1ccccc1)NC(=O)c1cc(O)cc(O)c1` came in with an IC50 in assay [1] of 0.051 µM. The compound further yielded an EC50 in assay [2] of 11 µM. In assay [3], this compound had a CCIC50 of 53 µM.

Take `CC(C)c1nc(CN(C)C(=O)N[C@H](C(=O)N[C@@H](Cc2ccccc2)C[C@H](O)[C@H](Cc2ccccc2)NC(=O)OCc2cncs2)C(C)C)cs1` [RITONAVIR]: the concentration giving a half-maximal response (EC50) in assay [2] was 0.022 µM.

For `CC(C)(C)OC(=O)N[C@@H](Cc1ccccc1)C[C@H](O)[C@H](Cc1ccccc1)NC(=O)c1cc(O)ccc1Cl`, the concentration for half-maximal inhibition (IC50) in assay [1] was 0.012 µM. Besides, in assay [2], a half-maximal effect (EC50) was put at 3.7 µM. The same compound returned a CCIC50 in assay [3] of 19 µM.

In assay [1], `COc1cccc(C(=O)N[C@@H](Cc2ccccc2)[C@@H](O)C[C@H](Cc2ccccc2)NC(=O)OC(C)(C)C)c1` displayed an IC50 of 0.023 µM. Moreover, the concentration giving a half-maximal response (EC50) in assay [2] is above 10 µM. Besides, the CCIC50 in assay [3] amounted to 19 µM.

In turn, `CC(C)(C)OC(=O)N[C@@H](Cc1ccccc1)C[C@H](O)[C@H](Cc1ccccc1)NC(=O)c1ccc(O)cc1` showed an IC50 in assay [1] of 0.0033 µM. The compound also gave an EC50 in assay [2] of 4.8 µM. This compound came in with a CCIC50 in assay [3] of 29 µM.

For `CC(C)(C)OC(=O)N[C@@H](Cc1ccccc1)C[C@H](O)[C@H](Cc1ccccc1)NC(=O)c1ccc(O)c(O)c1`, half-maximal inhibition in assay [1] (IC50) was put at 0.0041 µM. The same compound came in with an EC50 in assay [2] of 2.9 µM. In assay [3], this compound returned a CCIC50 of 21 µM.

`CC(C)(C)OC(=O)N[C@@H](Cc1ccccc1)C[C@H](O)[C@H](Cc1ccccc1)NC(=O)c1cccc(O)c1` displayed a half-inhibitory concentration (IC50) in assay [1] of 0.0034 µM. Moreover, the concentration for a half-maximal effect (EC50) in assay [2] turned out to be 1.6 µM. Besides, the CCIC50 in assay [3] was determined as 45 µM.

As to `CC(C)(C)OC(=O)N[C@@H](Cc1ccccc1)C[C@H](O)[C@H](Cc1ccccc1)NC(=O)c1ccccc1O`, the midpoint of inhibition in assay [1], the IC50, lay at 0.145 µM. In addition, in assay [2], the EC50 is above 75 µM. This compound returned a CCIC50 in assay [3] above 100 µM.

With `Nc1ccc(C(=O)N[C@@H](Cc2ccccc2)C[C@H](O)[C@H](Cc2ccccc2)NC(=O)OCc2ccccc2)c(Cl)c1`, it took 0.0061 µM to reach half-maximal inhibition in assay [1] (IC50). This compound also displayed an EC50 in assay [2] above 10 µM. The compound further displayed a CCIC50 in assay [3] of 15 µM.

`Nc1ccc(C(=O)N[C@@H](Cc2ccccc2)C[C@H](O)[C@H](Cc2ccccc2)NC(=O)OCc2ccccc2)cc1O` gave an IC50 in assay [1] of 0.022 µM. Besides, in assay [2], the 50% effective concentration (EC50) was above 10 µM. In assay [3], this compound returned a CCIC50 of 18 µM.

On to `Cc1c(N)cccc1C(=O)N[C@@H](Cc1ccccc1)[C@@H](O)C[C@H](Cc1ccccc1)NC(=O)OC(C)(C)C`, for which the IC50 in assay [1] amounted to 0.0026 µM. In addition, a half-maximal effect in assay [2] (EC50) was put at 1.4 µM. In assay [3], the CCIC50 worked out at 56 µM.

In assay [1], `CC(C)(C)OC(=O)N[C@@H](Cc1ccccc1)C[C@H](O)[C@H](Cc1ccccc1)NC(=O)c1ccccc1` yielded an IC50 of 0.0045 µM. The compound further came in with an EC50 in assay [2] of 4.3 µM. For the same compound, the CCIC50 in assay [3] was 16 µM.

On to `COc1cc(C(=O)N[C@@H](Cc2ccccc2)[C@@H](O)C[C@H](Cc2ccccc2)NC(=O)OC(C)(C)C)ccc1N`, for which the half-maximal inhibitory concentration (IC50) in assay [1] was 0.0075 µM. The same compound displayed a concentration for a half-maximal effect (EC50) in assay [2] of 3.2 µM. Besides, in assay [3], the CCIC50 was found to be 38 µM.
